Results: US20220259172A1, “CHEMICAL INHIBITORS OF ID PROTEINS FOR THE TREATMENT OF CANCER AND OTHER DISEASES” (Universität Heidelberg, priority 2019, published 2022)
Entries after “also recorded” stand apart in the source; their conditions may differ.

Experiments:
Id1 [1] = test: Id1 expression in LECs, Western blot; type: cell-based; conditions: indicated concentrations, 24 hours (FIG. 10B)
Protocol: (§1) Human umbilical vein endothelial cells (HUVECs) and lymphatic endothelial cells (LECs) were cultivated in EBM™-2 Endothelial Cell Growth Basal Medium supplemented with EGM™-2 MV Microvascular Endothelial Cell Growth Medium-2 SingleQuots™ Kit (both Lonza, catalogue numbers CC-3156 and CC4176, respectively), hereafter referred to as endothelial cell growth medium. HUVECs and LECs were cultivated in the presence of the indicated concentrations of X6632, or with DMSO as a solvent control. After 24 hours, cells were harvested. Lysates were western blotted and probed with antibodies against Id1 and Id3. Western blots probed with vinculin antibodies served as loading controls.
(§2) Western blot analysis was performed using standard methods. The following antibodies were used for protein detection: Id1 (195-14, CalBioreagents), Id3 (17-3, CalBioreagents), β-actin (AC-15, Sigma Aldrich), Vinculin (VIN-11-5, Sigma Aldrich). Protein bands were detected using HRP conjugated secondary antibodies (P0447, P0448, Agilent Technologies) and enhanced chemiluminescence (32106, Thermo Fisher Scientific).
(§3) The effect of X6632 on Id1 and Id3 expression in cultivated proliferating human umbilical vein endothelial cells (HUVECs) was investigated. […] LDN-193189, an antagonist of BMP receptor isotypes ALK2 and ALK3, served as a positive control reference for inhibition of Id1 and Id3 expression.

Id3 [2] = test: Id3 expression in HUVECs, Western blot; type: cell-based, Human
Protocol: as §1, §2, §3

LEC spheroids = test: Sprouting from LEC spheroids in collagen; type: cell-based; conditions: X6632 10 μM; 50 ng/ml hVEGF-A; 24 h; collagen type I
Protocol: HUVECs or LECs were resuspended in endothelial cell growth medium containing 20% methylcellulose at 1.6×10^4 cells per millilitre. Twenty-five microliters of cell suspension were pipetted as drops on non-adherent plastic plates, which were then inverted to form hanging drop cultures. Plates were incubated for 24 h at 37° C. Spheroids were harvested, then embedded in collagen type I (2 mg/ml) containing 0.5% methylcellulose. After polymerization, gels were cultivated with endothelial cell growth medium containing 50 ng/ml hVEGF-A in the presence or absence of X6632 (10 μM), or DMSO as a solvent control. Sprouting was assessed after cultivation for 24 h using microscope-based image acquisition. Representative images are shown.
To determine whether this is the case, the impact of […] on angiogenic and lymphangiogenic sprouting from endothelial cell spheriods was investigated. To this end, HUVECs and LECs were grown as spheriods in hanging drop cultures. The spheroids were then embedded in collagen. Sprouting from the spheroids in the presence and absence of X6632 was monitored using microscope-based image analysis.

B16-F10 and Ret cells = test: Proliferation of melanoma cells in 2D culture; type: cell-based, murine
Id3 [3] = test: Compound screen: BMP4-induced Id3 expression, Western blot; type: cell-based, murine; conditions: B16-F10 and Ret cells, BMP4 10 ng/ml and compound simultaneously, 24 h, rated relative to CBD
Protocol: (§4) To screen compounds with an inhibitory effect on Id1 and Id3 expression, cells were simultaneously stimulated with BMP4 (10 ng/ml, 315-27, Peprotech) and substances at the indicated concentrations for 24 h. DMSO served as a solvent control. Effects on Id1 and Id3 expression levels were analysed by Western blotting.
as §2
(§5) B16-F10 and Ret melanoma cells were treated with BMP4 to induce Id1 and Id3 expression, and simultaneously treated with each of the compounds individually for a 24 h period.

HUVECs = test: HUVEC proliferation, CyQUANT assay; type: cell-based, Human; conditions: dose-dependent manner (FIG. 11)
Protocol: HUVECs (A) and LECs (B) were cultivated in endothelial cell growth medium. Cells were incubated with the indicated concentrations of X6632. Incubation with DMSO served as a solvent control. After cultivation for the indicated time periods, cells were stained with a CyQUANT™ Cell Proliferation Assay Kit (Thermo Fisher Scientific). The CyQUANT™ dye emits fluorescence after excitation at 485 nm when incorporated in double-stranded DNA, allowing DNA content to be used as a measure of cell numbers. Plates were incubated for 15 min at 37° C. to allow the CyQUANT™ dye to incorporate into DNA. Fluorescence was measured by excitation at 485 nm and detection of emission at 530 nm at 25 positions in each well (signal intensity) using a Tecan Infinite M200 reader.

Id3 [4] = test: Id3 expression in LECs, Western blot; type: cell-based; conditions: indicated concentrations, 24 hours (FIG. 10B)
Protocol: as §1, §2, §3

Ret melanoma cells = test: Tumor growth and initiation in vivo, Ret; parameters: species or system mice
From the text: B16-F10 (A) or Ret (B) cells were co-injected with Matrigel into syngeneic mice. […] Numbers indicate the number of animals with a tumor in each group. Bar graphs show the mean tumor volume in each group at the day when the first animal had reached the legal tumor size limit. Kaplan-Meier curves show the percentage of tumor-free animals in percent as a measure for tumor initiation.
Cells were harvested using trypsin/EDTA and washed in PBS. The indicated numbers of living melanoma cells were subcutaneously injected into the flank of syngeneic mice in 100 μl PBS. For co-injection experiments, the indicated number of living cells was resuspended in 100 μl Matrigel HC (10 mg/ml, #354262, Corning Inc.), and subcutaneously injected into the flank. Tumor volume was calculated using the formula 4/3π (d1/2×d2/2×d3/2), where d1−d3 represents the diameter of the tumor in three dimensions. […] All animal experiments were approved by the local authorities, and performed according to the German legal requirements. Tumor initiating cell (TIC) frequency and p-values were calculated using ELDA software.
To investigate the anti-tumor properties of the selected Id1/Id3-inhibiting compounds, groups of experimental mice (8 per group) were injected subcutaneously with B16-F10 or Ret melanoma cells. […] Melanoma initiation and growth was assessed over a period of 90 days.

Id1 [5] = test: Compound screen: BMP4-induced Id1 expression, Western blot; type: cell-based, murine; conditions: B16-F10 and Ret cells, BMP4 10 ng/ml and compound simultaneously, 24 h, rated relative to CBD
Protocol: as §4, §2, §5

Compound: CCCCc1cc2c(O)cc(C3(CCCC)CCCCC3)cc2oc1=O [X6632, 7-(1-Butylcyclohexyl)-5-hydroxy-3-butyl-2H-chromen-2-one]
- Expression of Id1 protein (Id1 [1]): inhibits
- Expression of Id3 protein (Id3 [2]; HUVECs, indicated concentrations, 24 hours (FIG. 10B)): inhibits
- Id3 protein expression (Id3 [2]; proliferating HUVECs, 24 hours (FIG. 10A)): completely abrogated
- Sprouting from LEC spheroids (LEC spheroids): substantially inhibited
- Proliferation / cytotoxicity, melanoma cells (B16-F10 and Ret cells): strongly inhibited
- Inhibitory effect on Id3 protein expression (Id3 [3]): more potent
- Inhibitory effect on Id3 protein expression (Id3 [3]; listed as X 6632): strongest inhibitory activities
- Proliferation of HUVECs (HUVECs): inhibited
- Expression of Id3 protein (Id3 [4]): inhibits
- Melanoma growth and initiation (Ret melanoma cells; Ret cells co-injected with Matrigel, syngeneic mice, daily i.p. first 14 days, compared to DMSO): significantly inhibit; also recorded: potent inhibitors
- Number of mice that did not develop any tumors (Ret melanoma cells; Ret cells, 8 mice per group, assessed over 90 days): 1 mice
- Tumor growth and initiation compared to CBD (Ret melanoma cells; Ret experiment, daily i.p. first 14 days): trend towards reduced tumor initiation and growth
- Inhibitory effect on Id1 protein expression (Id1 [5]): more potent
- Inhibitory effect on Id1 protein expression (Id1 [5]; listed as X 6632): strongest inhibitory activities
